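Cultured in 96-well plates, cells were exposed to test compound for 48 hours across five concentrations. The concentration for full growth arrest is given as TGI.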
Tests used:
Assay in all cases: inhibition of tumour cell growth, NCI panel, 48 h
HCT-15 colon = test system: HCT-15 colon
NCI-H23 lung = test system: NCI-H23 lung
MDA-MB-231 breast = test system: MDA-MB-231 breast
HOP-62 NSCLC = test system: HOP-62 NSCLC
SW-620 colon = test system: SW-620 colon
SK-MEL-28 melanoma = test system: SK-MEL-28 melanoma
NCI-H226 lung = test system: NCI-H226 lung
EKVX NSCLC = test system: EKVX NSCLC
MDA-MB-435 = test system: MDA-MB-435
UACC-62 melanoma = test system: UACC-62 melanoma
CCRF-CEM leukemia = test system: CCRF-CEM leukemia
IGROV1 ovarian = test system: IGROV1 ovarian
KM12 colon = test system: KM12 colon
UO-31 renal = test system: UO-31 renal
SK-MEL-2 melanoma = test system: SK-MEL-2 melanoma
A498 renal = test system: A498 renal
M14 melanoma = test system: M14 melanoma
HT29 colon = test system: HT29 colon
DU-145 prostate = test system: DU-145 prostate
HL-60(TB) leukemia = test system: HL-60(TB) leukemia
SNB-75 CNS = test system: SNB-75 CNS
TK-10 renal = test system: TK-10 renal
PC-3 prostate = test system: PC-3 prostate
HCT-116 colon = test system: HCT-116 colon
COLO 205 colon = test system: COLO 205 colon
MALME-3M melanoma = test system: MALME-3M melanoma
MCF7 breast = test system: MCF7 breast
OVCAR-4 ovarian = test system: OVCAR-4 ovarian
NCI-H460 lung = test system: NCI-H460 lung
RPMI-8226 leukemia = test system: RPMI-8226 leukemia
ACHN renal = test system: ACHN renal
RXF 393 renal = test system: RXF 393 renal
HS 578T breast = test system: HS 578T breast
SK-MEL-5 melanoma = test system: SK-MEL-5 melanoma
SF-268 CNS = test system: SF-268 CNS
K-562 leukemia = test system: K-562 leukemia
786-0 renal = test system: 786-0 renal
HCC-2998 colon = test system: HCC-2998 colon
OVCAR-5 ovarian = test system: OVCAR-5 ovarian
UACC-257 melanoma = test system: UACC-257 melanoma
U251 CNS = test system: U251 CNS
MOLT-4 leukemia = test system: MOLT-4 leukemia
A549 NSCLC = test system: A549 NSCLC
LOX IMVI melanoma = test system: LOX IMVI melanoma
BT-549 breast = test system: BT-549 breast
T-47D breast = test system: T-47D breast
MDA-N = test system: MDA-N
CAKI-1 renal = test system: CAKI-1 renal
SF-295 CNS = test system: SF-295 CNS
SNB-19 CNS = test system: SNB-19 CNS
NCI-H522 lung = test system: NCI-H522 lung
SR leukemia = test system: SR leukemia
OVCAR-3 ovarian = test system: OVCAR-3 ovarian
SF-539 CNS = test system: SF-539 CNS
SK-OV-3 ovarian = test system: SK-OV-3 ovarian
OVCAR-8 ovarian = test system: OVCAR-8 ovarian
NCI/ADR-RES ovarian = test system: NCI/ADR-RES ovarian
SN12C renal = test system: SN12C renal
HOP-92 NSCLC = test system: HOP-92 NSCLC

Measured: TGI

Nc1nc(SC/C=C/c2ccccc2)c2[nH]cnc2n1
88.8 µM: HS 578T breast
not listed: HOP-92 NSCLC
> 100 µM: all other assays above

O=c1cnn(C/C=C/CO)c(=O)[nH]1
86 µM: LOX IMVI melanoma
not listed: UACC-62 melanoma | HT29 colon | HCT-116 colon | OVCAR-4 ovarian | 786-0 renal | MOLT-4 leukemia | SF-295 CNS | SF-539 CNS | SK-OV-3 ovarian
> 100 µM: all other assays above

From PubChem BioAssay (NCI)
